Assay: Pharmacokinetics study
Assay type: in vivo, Balb/c male mice
Conditions: male, Balb/c, mouse, ip; 50 mg/kg i.p., plasma
Protocol: Pharmacokinetics study. Mass quantification analysis was carried out using an Agilent 6490 iFunnel triple quadrupole (QQQ) mass spectrometer equipped with an Agilent 1290 infinity II UHPLC. ZORBAX C18 (Eclipse Plus, 2.1×50 mm, 1.8 μm particle size) was used as analytical UHPLC column. The mobile phase was composed of 50% mixture of water (with 0.1% formic acid and 4 mM ammonium formate) and acetonitrile (0.1% formic acid). The flow rate of mobile phase was set at 0.5 mL/min and column temperature was adjusted at 30° C. The electrospray ionization source was operated in positive ion mode. […] For SU086-CD3 the [M+H]^+ ions were monitored at m/z 347.1 as the precursor ion and a fragment at m/z 198.1 as the product ion. […] Blood was collected retro-orbitally at 5, 15, 30, 60, 120, 360 and 720 minutes after injection in three mice per time point. Blood plasma was separated via centrifugation at 7,000 RPM for 10 minutes. Each plasma sample was mixed with SU086-CD3 internal standard. 10 μL of plasma was mixed with 190 μL MS-grade acetonitrile and vortexed 30 seconds followed by 5 minutes incubation at RT. Mixture was centrifuged at 11,000 RPM for 15 min at 4° C. and supernatant was collected and further cleaned by re-centrifugation. Each protein-free plasma fraction (n=3, from three independent mouse) was resolved using the HPLC/MS MRM method as described above.

half-life: 1 h
Compound: COc1cc(OC)c(C(=O)/C=C/c2cccc([N+](=O)[O-])c2)c(OC)c1 [SU086]
